≈ marks a conversion by molar mass, not a printed value. Square brackets hold non-standard residues; d marks the D form. Peptide text beside a SMILES is read from it. Nspe = C[C@H](NCC(=O)O)c1ccccc1; Nlys = NCCCCNCC(=O)O
Tests used:
[1] = system: P. maltophilia ATCC13637; assay: microbe, parasite or virus in culture; details: P. maltophilia ATCC13637
Outline: (§1)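 Clinical and lab strains were tested by modified broth microdilution in Mueller Hinton medium at 2–7 x 10^5 CFU/mL.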

[2] = system: S. aureus ATCC25923; assay: microbe, parasite or virus in culture; details: S. aureus ATCC25923
Outline: as §1

[3] = system: P. aeruginosa H1030 (MDR); assay: microbe, parasite or virus in culture; details: P. aeruginosa H1030 (MDR)
Outline: as §1

[4] = system: E. faecium T62764 (VRE); assay: microbe, parasite or virus in culture; details: E. faecium T62764 (VRE)
Outline: as §1

[5] = system: E. coli ATCC 35218; format: cell-based
Outline: (§2)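 MICs determined by 2:1 serial broth microdilution in cation-adjusted Mueller-Hinton broth per CLSI M7-A6, using inoculum at 1 x 10^6 CFU/mL mixed 1:1 with peptoid solution. Three independent replicates, each with two parallel trials.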

[6] = system: B. subtilis ATCC 6633; format: cell-based
Outline: as §2

[7] = system: 20 bacterial strains (13 Gram-negative, 7 Gram-positive)
Procedure: The MICs of test agents were measured using a modified broth micro-dilution method in Difco Mueller Hinton medium, on a panel of bacterial pathogens that were both susceptible and resistant to common antibiotics (S1 File). Briefly, serial dilutions were performed in 0.01% acetic acid containing 0.2% bovine serum albumin at 10-fold the desired final concentration. Ten μL of the 10-fold concentrated test reagents were added to each well of a 96-well polypropylene microtitre plate containing 90 μL of Mueller Hinton media per well. Bacteria were added to the plate from an overnight culture at a final concentration of 2–7 x 10^5 CFU/mL and incubated overnight at 37°C. The MIC is defined as the concentration at which no growth was observed.
Screening of peptoid antimicrobial activity against a panel of multidrug resistant superbugs was done according to the protocol described in the manuscript. The bacterial strains used in this panel included; P. aeruginosa PAO1 strain H103 [1], P. maltophilia ATCC#13637, S. aureus ATCC#25923 [1], E. faecalis ATCC#29212 [2], and E. cloacae 218R, constitutively expressing Class C chromosomal β-lactamase, were from the Hancock lab strains collection. An MRSA clinical isolate was kindly provided by Anthony Chow (Vancouver General Hospital, Vancouver, Canada). Two Klebsiella pneumoniae and two E. coli clinical isolates expressing extended spectrum β-lactamases (ESBL) were kindly provided by George Zhanel (Health Sciences Centre, Winnipeg, Canada). Vancomycin-resistant clinical isolates of Enterococcus faecalis and E. faecium were obtained from Ana M. Paccagnella (BC Centre for Disease Control, Vancouver, Canada). Three clinical isolates (#9, #198 and #213) of multi-drug resistant P. aeruginosa, were kindly provided by Carlos Kiffer (University of São Paulo, Brazil). […] Three P. aeruginosa clinical isolates of the Liverpool epidemic strain (LES) (H1027, H1030 and LES400) were all kindly provided by Craig Winstanley (University of Liverpool, UK). […] All tested bacterial strains were categorized as biohazard level 2 pathogens.

[8] = system: erythrocytes; assay: Hemolytic activity (HD10/HD50); format: cell-based; details: erythrocytes
Source text: Table 1 Characteristics of antimicrobial peptoids, screened for activity against B. subtilis and E. coli bacterial strains. | column: HD10 / HD50

C[C@@H](c1ccccc1)N(CC(N)=O)C(=O)CN(C(=O)CN(CCCCN)C(=O)CN(C(=O)CN(C(=O)CN(CCCCN)C(=O)CN(C(=O)CN(C(=O)CN(CCCCN)C(=O)CN(C(=O)CN(C(=O)CNCCCCN)[C@@H](C)c1ccccc1)[C@@H](C)c1ccccc1)[C@@H](C)c1ccccc1)[C@@H](C)c1ccccc1)[C@@H](C)c1ccccc1)[C@@H](C)c1ccccc1)[C@@H](C)c1ccccc1 [Peptoid 1, H-(NLys-Nspe-Nspe)4-NH2] (H-[Nlys][Nspe][Nspe][Nlys][Nspe][Nspe][Nlys][Nspe][Nspe][Nlys][Nspe][Nspe]-NH2)
MIC [1]: 2 µg/mL (≈ 1.1 µM) | MIC [2]: 2 µg/mL (≈ 1.1 µM) | MIC [3]: 4 µg/mL (≈ 2.2 µM) | MIC [4]: 2 µg/mL (≈ 1.1 µM) | MIC E. coli [5]: 6.3 µM (≈ 11.5 µg/mL) | MIC B. subtilis [6]: 1.6 µM (≈ 2.91 µg/mL) | median MIC against all Gram-positive strains tested ([7]; 7 Gram-positive strains): 2 µg/mL | number of pathogens with MIC ≤ 8 μg/mL ([7]; out of the 20 pathogens tested): 19 | HD10 (hemolytic activity) ([8]; first value of HD10 / HD50 cell): 21 | HD50 (hemolytic activity) ([8]; second value of HD10 / HD50 cell): 100

Reference: paper PMC4744035, “In Vivo, In Vitro, and In Silico Characterization of Peptoids as Antimicrobial Agents” (PLoS ONE, 2016)
